Data as given in EP4595964A1, “TREATMENT OF GM1 GANGLIOSIDOSIS” (Azafaros B.V., priority 2024, dated 2025).

What was measured:
[1] = tested on: GLB1-null Ex 2-3 cerebral organoids; assay: Neuronal survival and health in the human brain organoid model of GM1 gangliosidosis; assay type: cell-based; conditions: 5 nM, 500 nM; concomitant with the GM1 reduction
[2] = tested on: GLB1-null Ex 2-3 cerebral organoids; assay type: cell-based, human
[3] = tested on: control or GLB1-null cerebral organoids; assay: Cellularity test in cerebral organoids; assay type: cell-based, human; conditions: any timepoint, 5 nM, 500 nM

## OC[C@H]1[C@@H](O)[C@H](O)[C@@H](O)CN1CCCCCOCc1ccc(-c2ccccc2)c(F)c1 [nizubaglustat]
[1]
  neuronal survival and health: increased
[2]; 5 nM, 500 nM, weeks 18, 20 and 24, dose-dependent fashion, GLB1-null Ex 2-3 cerebral organoids
  GM1 accumulation: significantly reduced
[2]; Week 24, representative images (Figure 4 top panel), green stain
  level of GLB1 in the EX 2-3 cell line: significantly reduces
[2]; after 24 weeks of regular (2-3 times per week) administration
  reduced the level of GM1 ganglioside: at least 2 fold
[3]
  cellularity: did not reduce
